Measured values: the NIST ThermoML archive (doi:10.1021/je800789b)
Numbers after ± are expanded uncertainties.

Settings: Crystal

Row | SMILES | Normal melting temperature
1 | O=C(O)C1CCCCC1 [cyclohexanecarboxylic acid] | 29.8 ± 1.2 °C
2 | O=C(O)CC1CCCCC1 [cyclohexylethanoic acid] | 29.8 ± 1.2 °C
3 | CCCCCCCCCCO [decan-1-ol] | 6.2 ± 0.4 °C
4 | CCCCCCCCCCCCO [dodecan-1-ol] | 24.1 ± 0.6 °C
